# Assays:
# breast cancer cells = test: Protein transfection efficiency by flow cytometry; type: cell-based, human; conditions: HEPES buffer 20 mM-40 mM
# Protocol: (§1) Flow cytometry: After protein transfection was completed, the cells in the culture dish were washed with PBS, trypsinized and pelleted. The cells were mixed with Fixation/Permeabilization (eBioscience, Inc., San Diego, Calif., USA) working solution and incubated at 4° C. for 30 min to 24 h. Cells were washed twice with 1× Permeabilization Buffer (eBioscience, Inc., San Diego, Calif., USA). To assess the protein transfection efficiency, the cells were stained with anti-v5 or anti-flag antibodies and Alexa Fluor 488 anti-mouse antibodies on ice. Cells were suspended in 1×PBS and analyzed by flow cytometry (BD Biosciences, Qume Drive San Jose, Calif., USA). FIG. 1 schematically illustrates the protein transfection procedure. Briefly, the protein of interest and a protein transfection composition, such as HEPES buffer, were mixed and incubated for about 15 min to about 30 min to form a mixture (Panel A). Cells to be transfected were replaced in a minimal essential medium (Panel B). The mixture in Panel A was added to the cells in Panel B and incubated at 37° C. for about 4 to about 24 hours (Panel C). The protein transfection efficiency can be analyzed using immunofluorescent staining or flow cytometry (Panel D). Alexa Fluor 488 anti-mouse IgG or […]1 were incubated with Opti-MEM (the control group) or HEPES buffer (20 mM-40 mM) to transfect the following cancer cells according to the steps in Example 1: human cervical cancer cells, human breast cancer cells (MCF7, BRCA009 or BRCA011), human endometrial cancer cells, lung adenocarcinoma cells, human pancreatic cancer cells, hepatocellular carcinoma cells, scarcoma cells, renal cell carcinoma cells, lymphoma cells, nasopharyngeal carcinoma cells, brain tumor cells, colon cancer cells, and leukemic cells. The protein transfection efficiency was assessed by flow cytometry or confocal microscope.
# pancreatic cancer cells = test: Protein transfection efficiency by flow cytometry; type: cell-based, human; conditions: HEPES buffer 20 mM-40 mM
# Protocol: as §1
# cervical cancer cells = test: Protein transfection efficiency by flow cytometry; type: cell-based, human; conditions: HEPES buffer 20 mM-40 mM
# Protocol: as §1
# endometrial cancer cells = test: Protein transfection efficiency by flow cytometry; type: cell-based, human; conditions: HEPES buffer 20 mM-40 mM
# Protocol: as §1
# [1] = tested on: lung adenocarcinoma cells; test: Protein transfection efficiency by flow cytometry; type: cell-based, human; conditions: HEPES buffer 20 mM-40 mM
# Protocol: as §1
# [2] = tested on: hepatocellular carcinoma cells; test: Protein transfection efficiency by flow cytometry; type: cell-based, human; conditions: HEPES buffer 20 mM-40 mM
# Protocol: as §1
# [3] = tested on: human ovarian cancer cells (MDAH2774); test: Protein transfection, immunofluorescent staining / confocal microscopy; type: cell-based; conditions: transfected using 20-30 mM HEPES buffer
# Protocol: Immunofluorescent staining procedure: After protein transfection is completed, the cells in the culture dish were washed three times with phosphate buffered saline (PBS) and fixed with 4% paraformaldehyde for 20 min. The cells were washed again with PBS, perforated with 0.1% Triton X-100 for 5 min, and blocked with 10% BSA for 30 min. For Alexa Fluor 488 anti-mouse IgGs, cells were stained with DAPI for 10 min. For B23, histone 1 or GAPDH antibody transfection, cells were stained with Alexa Fluor 488 or 546 anti-mouse IgG antibodies for 30 min and then stained with DAPI. For rhSTIP1 proteins or Flag-Rev peptides transfection, cells were stained with anti-v5 or anti-flag antibodies, respectively, and then stained with Alexa Fluor 488 anti-mouse IgG and DAPI. All images were detected by confocal microscopes (Leica, Wetzlar, Germany). The fluorescent signals were analyzed and quantified by Q-Win software (Leica, Wetzlar, Germany).
# FIG. 1 schematically illustrates the protein transfection procedure. Briefly, the protein of interest and a protein transfection composition, such as HEPES buffer, were mixed and incubated for about 15 min to about 30 min to form a mixture (Panel A). Cells to be transfected were replaced in a minimal essential medium (Panel B). The mixture in Panel A was added to the cells in Panel B and incubated at 37° C. for about 4 to about 24 hours (Panel C). The protein transfection efficiency can be analyzed using immunofluorescent staining or flow cytometry (Panel D).
# An in vitro evaluation of the optimal protein transfection condition was performed. According to the steps in FIG. 1. rhSTIP1 was incubated with HEPES buffers of different concentrations (5 or 20 mM) or Opti-MEM (control) at room temperature for about 15 minutes to form the protein mixtures to transfect human ovarian cancer cells. The mixtures were added to the cell culture dish comprising Opti-MEM and incubated at 37° C. for about 4 to about 24 hours.
# Different amounts of Alexa Fluor® 488 anti-mouse IgG (0, 2, 4, 8, or 16 μg) were incubated with 20 mM HEPES buffer and mixed with ovarian (MDAH2774) cancer cells in Opti-MEM.
# Alexa Fluor 488 anti-mouse IgG antibodies were mixed with 20 mM HEPES to form a mixture. […] Protein transfection efficiency was assessed using confocal fluorescent microscope.
# The following proteins were incubated with Opti-MEM (control group) or 20-30 mM HEPES buffer to transfect ovarian cancer cells (MDAH2774 or MOSEC) or endometrial cancer cells: Alexa Fluor 488-conjugated, anti-mouse IgG antibody (about 150 kDa), anti-B23 antibody, anti-histone 1 antibody, anti-STIP1 antibody, rhSTIP1 protein (62.6 kDa), Flag-Rev peptide (<5 kDa) and FITC-Rev peptide (<5 kDa). […] Protein transfection efficiency was assessed by staining the transfected cancer cells with Alexa Fluor 488 or 594 anti-mouse IgG antibodies (for Alexa Fluor 488-conjugated anti-mouse IgG antibody, anti-B23 antibody, anti-histone 1 antibody, anti-STIP1 antibody), v5 antibody (for rhSTIP1), or anti-Flag antibody (for Flag-Rev peptide), and fluorescent signals were analyzed with confocal microscopy.
# The protein transfection efficiency of HEPES was compared to other commercial reagents, such as PULsin™, ProteoJuice™, Pro-Ject™, Xfect™, and BioPORTER®. […] The transfected ovarian cancer cells were stained with Alexa Fluor 488 anti-mouse IgG antibodies and protein transfection efficiency was assessed by confocal fluorescent microscopy.
substance,measurement,setting,value
"rhSTIP1: v5-tagged recombinant human STIP1 protein (BiP-STIP1-V5-His), 62.6 kDa",transfection efficiency of rhSTIP1 using HEPES buffer,breast cancer cells,about 98.8%
same,transfection efficiency of rhSTIP1 using HEPES buffer,pancreatic cancer cells,~99.9%
same,transfection efficiency of rhSTIP1 using HEPES buffer,cervical cancer cells,about 98.8%
same,transfection efficiency of rhSTIP1 using HEPES buffer,endometrial cancer cells,~97%
same,transfection efficiency of rhSTIP1 using HEPES buffer,[1],~99.5%
same,transfection efficiency of rhSTIP1 using HEPES buffer,[2],~96.6%
same,fluorescent signal of transfected protein (confocal microscopy),[3],detected
